The nature of this series: Biopharmaceutical properties of rivastigmine in humans. Format: in vivo.

Molecules are shown by their SMILES.

In the case of `CCN(C)C(=O)Oc1cccc([C@H](C)N(C)C)c1` [Rivastigmine], the absorption result is “rapidly and completely absorbed”. The metabolism result (esterases, e.g., acetyl and butyryl cholinesterase) is given as “metabolised mainly through hydrolysis by esterases”.

(Values after patent publication US20110038897A1, “ORAL CONTROLLED RELEASE FORMULATIONS” (priority 1999, published 2011).)
